Measurements as given in patent publication US20230330094A1, “COMBINATION COMPOSITIONS AND METHODS FOR TREATING CANCER” (The Board of Supervisors of Louisiana State University and …, priority 2020, published 2023).
“Also recorded” adds a separate entry of the source.

Experiments:
P2×2 = biological target: T1, P2×2 (Homo sapiens, UniProt Q9UBL9); conditions: cited from earlier work
T1 sequence (Q9UBL9 1-471): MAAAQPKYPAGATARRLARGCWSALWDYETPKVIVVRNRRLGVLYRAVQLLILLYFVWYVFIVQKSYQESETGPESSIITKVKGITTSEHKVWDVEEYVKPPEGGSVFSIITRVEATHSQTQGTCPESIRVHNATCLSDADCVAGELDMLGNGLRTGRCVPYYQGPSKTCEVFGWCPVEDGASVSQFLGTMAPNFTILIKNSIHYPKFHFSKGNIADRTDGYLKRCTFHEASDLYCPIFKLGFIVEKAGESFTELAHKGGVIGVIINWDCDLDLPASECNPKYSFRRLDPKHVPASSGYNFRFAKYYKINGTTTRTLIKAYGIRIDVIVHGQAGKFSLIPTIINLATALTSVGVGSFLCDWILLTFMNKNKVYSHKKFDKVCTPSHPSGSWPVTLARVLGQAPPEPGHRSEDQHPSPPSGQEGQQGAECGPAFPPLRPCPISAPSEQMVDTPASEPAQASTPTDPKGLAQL

P2Xs = conditions: cited from earlier work
P2Y 2 = P2Y 2 (Homo sapiens, UniProt P41231); conditions: cited from earlier work
P2Y4 = P2Y4 (Homo sapiens, UniProt P51582); conditions: cited from earlier work
[1] = tested on: luciferase-modified U87MG tumor cells; experiment: In vivo bioluminescent imaging of intracranial tumor growth, orthotopic GBM mouse model; conditions: imaging days 13, 20 and 30; vs saline/vehicle
[2] = tested on: luciferase-modified U87MG tumor cells; experiment: Ex vivo T1-weighted MRI tumor volume, orthotopic GBM mouse model; assay type: in vivo; conditions: day 30, ex vivo MRI; vs saline
Method: Athymic nude female mice (Charles Rivers Laboratories and Envigo), 6 to 8 weeks of age, were anesthetized with a ketamine/xylazine cocktail solution (100 mg/kg; 10 mg/kg). Then, mice were secured in a stereotactic head frame and a midline 1 cm incision over the scalp was made. Natural tears lubricant was applied to the eyes. For each mouse, 5 × 10^6 U87MG cells in 5 µL serum free Dulbecco’s Modified Eagle Medium (DMEM) tagged with a luciferase […] gene were implanted into the right hippocampus using a 10 µL Hamilton syringe at the following coordinates, in reference to the bregma: 1.5 mm lateral, 1.5 mm posterior and 3.5 mm in depth; the needle was lowered to 3.5 mm and pulled up by 1 mm, prior to the injection (Marrero et al., 2014) (FIG. 1B). Rectal and cranial temperatures will be maintained at 36-37° C. during surgical procedure. […]
Treatment was administered starting on day 13 after implantation, and intracranial tumor growth was quantified using in vivo bioluminescent imaging on days 13 (before treatment) and then 20 and 30. […]
Cheshire image processing software (Hayden Image/Processing Group, Waltham, MA), was used to manually outline whole brain and tumor volumes enhanced by Gd deposition. […] Whole brain and tumor volumes (mm^3) were extracted and analyzed (Jeffes et al., 2005; Blasiak et al., 2013). […]

[3] = Physiological variables (body weight, temperature, survival) in GBM mouse model; assay type: in vivo
Method: Athymic nude female mice (Charles Rivers Laboratories and Envigo), 6 to 8 weeks of age, were anesthetized with a ketamine/xylazine cocktail solution (100 mg/kg; 10 mg/kg). Then, mice were secured in a stereotactic head frame and a midline 1 cm incision over the scalp was made. Natural tears lubricant was applied to the eyes. […] Rectal and cranial temperatures will be maintained at 36-37° C. during surgical procedure. The incision was closed using black monofilament nylon 5.0 sterile sutures and the area was cleaned with betadine solution. The mice were placed in individual cages and observed daily for weight, temperature, and locomotor changes. Mice were perfused at the end of the 30-day survival, brains removed and ex vivo MRI imaging were conducted.
Mice were anesthetized with a ketamine/xylazine cocktail solution (100 mg/kg; 10 mg/kg) and secured in a stereotactic head frame. A midline, 1 cm incision was made over the scalp. Natural tear lubricant was applied to the eyes. For each mouse, 5 × 10^6 U87MG cells in 5 µL serum-free Dulbecco’s Modified Eagle Medium (DMEM) were injected into the right hippocampus using a 10 µL Hamilton syringe at the following coordinates related to the bregma: 1.5 mm lateral, 1.5 mm posterior, and 3.5 mm in depth. […]

recurrent GBM = conditions: single agent or in combination with chemotherapy; cited from earlier work

Chain of P2Y 2 (P41231 whole entry, species assumed): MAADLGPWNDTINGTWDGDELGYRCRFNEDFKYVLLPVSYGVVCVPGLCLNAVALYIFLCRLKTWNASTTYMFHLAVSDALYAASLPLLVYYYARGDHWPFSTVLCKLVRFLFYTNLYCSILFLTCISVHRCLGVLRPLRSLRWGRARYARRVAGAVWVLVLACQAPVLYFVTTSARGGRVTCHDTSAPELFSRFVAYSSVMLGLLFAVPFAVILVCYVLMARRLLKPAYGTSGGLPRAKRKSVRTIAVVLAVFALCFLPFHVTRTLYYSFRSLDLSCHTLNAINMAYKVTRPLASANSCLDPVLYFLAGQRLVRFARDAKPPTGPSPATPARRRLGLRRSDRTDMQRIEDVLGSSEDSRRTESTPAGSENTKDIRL
Chain of P2Y4 (P51582 whole entry, species assumed): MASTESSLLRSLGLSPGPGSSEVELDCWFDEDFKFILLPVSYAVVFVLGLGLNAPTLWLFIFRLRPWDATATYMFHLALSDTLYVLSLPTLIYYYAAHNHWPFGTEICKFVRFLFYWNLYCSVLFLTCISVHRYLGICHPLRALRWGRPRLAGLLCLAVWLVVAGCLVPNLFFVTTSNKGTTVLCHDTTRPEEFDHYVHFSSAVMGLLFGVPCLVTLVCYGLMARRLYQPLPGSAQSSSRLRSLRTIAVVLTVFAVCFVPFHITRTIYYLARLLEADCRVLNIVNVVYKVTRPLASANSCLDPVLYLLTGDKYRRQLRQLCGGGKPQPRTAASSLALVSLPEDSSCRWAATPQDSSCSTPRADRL

Molecule	pEC50 (P2×2) (P2×2)	pEC50 (P2Xs) (P2Xs)	pEC50 (P2Y 2) (P2Y 2)	pEC50 (P2Y4) (P2Y4)	Bioluminescent tumor growth/size vs vehicle (in words) [1]	MRI (T1WI) tumor volume reduction compared to vehicle [2] [%]	MRI (T1WI) tumor volume vs vehicle (in words) [2]	Survival ([3]; 30-day survival period)	Change in rectal temperature compared to vehicle ([3]; during the 30 days of survival)	Radiographic response rate (recurrent GBM)
Cc1ccc(C(=O)Nc2ccc(S(=O)(=O)O)c3cc(S(=O)(=O)O)cc(S(=O)(=O)O)c23)cc1NC(=O)c1cccc(NC(=O)Nc2cccc(C(=O)Nc3cc(C(=O)Nc4ccc(S(=O)(=O)O)c5cc(S(=O)(=O)O)cc(S(=O)(=O)O)c45)ccc3C)c2)c1 [Suramin]	4.5	5.4	4.3	4.0	–	–	–	–	–	–
Avastin: recombinant humanized anti-VEGF monoclonal antibody	–	–	–	–	reduced tumor size; also recorded: repress orthotopic GBM; also recorded: significantly reduced tumorigenesis; also recorded: significant reduction in growth and size	67	reduced GBM tumor volumes	improved survival	No significant changes	up to 40%
